Ends that are not written are not given here.

In the assay the test system is microorganisms. As to the kind of experiment: Morphology, biofilm and growth disruption by peptides (Table 5). Further details: key: A: Peptide aggregates; B: Less hyphal formation; Clumps; Diffuse clumps and small polyps; F: Diffuse growth; H: Thin; I: Growth inhibition; Microcolony formation; Rippled; Small polyps; Thick; W: Halo formation on top, microlonies on bottom. Format: cell-based. An excerpt: In certain embodiments peptides that induce alterations in phenotype or other biological activities can also be used as antimicrobial effector moieties.

Take DLLKSLLGQDGAKNDEIIEFIKIIMEK [PF-591]: the “Organism, effect (morphology, biofilm and growth disruption)” value is reported as “C. jejuni (C)” (C. jejuni), “E. faecalis (A)” (E. faecalis) and “S. pneumoniae (R)” (S. pneumoniae).
Take “EILNNNQVIKELTMKYKTQFESNLGGWTARARR [PF-580]”: the “Organism, effect (morphology, biofilm and growth disruption)” value is given as “M. luteus (C)” (M. luteus), “MRSA (M)” (MRSA), “S. epidermidis (M)” (S. epidermidis) and “S. pneumoniae (C)” (S. pneumoniae).
On to “FESKILNASKELDKEKKVNTALSFNSHQDFAKAYQNGKI [PF-606]”, for which the “Organism, effect (morphology, biofilm and growth disruption)” value (C. albicans) is recorded as “C. albicans (B)”; the “Organism, effect (morphology, biofilm and growth disruption)” value (MRSA) was “MRSA (I)”; the “Organism, effect (morphology, biofilm and growth disruption)” value (S. epidermidis) is on record as “S. epidermidis (I)”; the “Organism, effect (morphology, biofilm and growth disruption)” value (S. mutans) was “S. mutans (I)”; the “Organism, effect (morphology, biofilm and growth disruption)” value (S. pneumoniae) is “S. pneumoniae (H)”.
Regarding FQKPFTGEEVEDFQDDDEIPTII [PF-437], where the note is “S. pneumoniae”, the “Organism, effect (morphology, biofilm and growth disruption)” value is recorded as “S. pneumoniae (I)”.
Regarding GIVLIGLKLIPLLANVLR [PF-322], the “Organism, effect” value (B. subtilis) is given as “B. subtilis (H)” and the “Organism, effect” value (S. epidermidis) is “S. epidermidis (C)”.
“GSVIKKRRKRMAKKKHRKLLKKTRIQRRRAGK [PF-527]”: the “Organism, effect (morphology, biofilm and growth disruption)” value by setting is: (B. subtilis) “B. subtilis (I)”; (C. albicans) “C. albicans (B)”; (C. jeikeium) “C. jeikeium (I)”; (C. jejuni) “C. jejuni (M)”; (M. luteus) “M. luteus (S)”; (MRSA) “MRSA (I)”. Moreover, the “Organism, effect (morphology, biofilm and growth disruption)” value runs as follows: (P. aeruginosa) “P. aeruginosa (I)”; (S. epidermidis) “S. epidermidis (M)”; (S. pneumoniae) “S. pneumoniae (H)”.
For the substance KFQGEFTNIGQSYIVSASHMSTSLNTGK [PF-583], the “Organism, effect (morphology, biofilm and growth disruption)” value runs as follows: (MRSA) “MRSA (I)”; (S. epidermidis) “S. epidermidis (I)”; (S. mutans) “S. mutans (F)”; (S. pneumoniae) “S. pneumoniae (D)”.
As for KFSDQIDKGQDALKDKLGDL [PF-525], where the note is “S. pneumoniae”, the “Organism, effect (morphology, biofilm and growth disruption)” value was “S. pneumoniae (H)”.
For the substance KNKKQTDILEKVKEILDKKKKTKSVGQKLY [PF-538], the “Organism, effect (morphology, biofilm and growth disruption)” value (S. pneumoniae) is “S. pneumoniae (H)”.
KTPNDKIHKTIIIKHIIL [PF-533]: the “Organism, effect (morphology, biofilm and growth disruption)” value by setting is: (E. coli) “E. coli (R)”; (E. faecalis) “E. faecalis (C)”; (MRSA) “MRSA (H)”; (S. epidermidis) “S. epidermidis (H)”; (S. pneumoniae) “S. pneumoniae (C)”.
As for “LGLTAGVAYAAQPTNQPTNQPTNQPTNQPTNQPTNQPRW-NH2 [PF-520]”, the “Organism, effect (morphology, biofilm and growth disruption)” value (S. pneumoniae) is recorded as “S. pneumoniae (M)”.
Regarding MGIIAGIIKVIKSLIEQFTGK [PF-007], the “Organism, effect” value is recorded as “E. coli (A)” (E. coli); “E. faecalis (A)” (E. faecalis); “M. luteus (A)” (M. luteus); “MRSA (R)” (MRSA); “S. epidermidis (A)” (S. epidermidis).
With MIHLTKQNTMEALHFIKQFYDMFFILNFNV [PF-040], the “Organism, effect” value reads like this: (B. subtilis) “B. subtilis (D)”; (C. jeikeium) “C. jeikeium (D)”; (C. jejuni) “C. jejuni (D)”; (E. coli) “E. coli (C)”; (M. luteus) “M. luteus (D)”; (MRSA) “MRSA (D)”. The “Organism, effect” value reads like this: (P. mirabilis) “P. mirabilis (C)”; (S. epidermidis) “S. epidermidis (D)”; (S. mutans) “S. mutans (F)”; (S. pneumoniae) “S. pneumoniae (D)”.
Consider MRFGSLALVAYDSAIKHSWPRPSSVRRLRM [PF-672], for which the “Organism, effect (morphology, biofilm and growth disruption)” value is, setting by setting: (B. subtilis) “B. subtilis (I)”; (C. albicans) “C. albicans (I)”; (C. jeikeium) “C. jeikeium (R)”; (E. faecalis) “E. faecalis (I)”; (MRSA) “MRSA (I)”; (S. epidermidis) “S. epidermidis (I)”. The “Organism, effect (morphology, biofilm and growth disruption)” value (S. pneumoniae) was “S. pneumoniae (I)”.
As to “PF-001 (chain 1 MNNWIIVAQLSVTVINEIIDIMKEKQKGGK; chain 2 MNNWIIVAQLSVTVINEIIDIMKEKQKGGK; Peptide with targeting and/or antimicrobial activity)”, the “Organism, effect” value was “C. jeikeium (D)” (C. jeikeium), “M. luteus (C)” (M. luteus), “MRSA (R)” (MRSA) and “S. epidermidis (C)” (S. epidermidis).
The corresponding values for “PF-004 (chain 1 ARLSKAIIIAVIVVYHLDVRGLF; chain 2 ARLSKAIIIAVIVVYHLDVRGLF; Peptide with targeting and/or antimicrobial activity)” are “C. jeikeium (A)”, “M. luteus (A)”, “MRSA (R)” and “S. epidermidis (A)”.
With “PF-019 (NDTNK; Peptide with targeting and/or antimicrobial activity)”, the “Organism, effect” value (MRSA) was “MRSA (M)”.
Regarding “PF-032 (RIVVPAHQSNMASTPNLSITP; Peptide with targeting and/or antimicrobial activity)”, the “Organism, effect” value runs as follows: (C. jeikeium) “C. jeikeium (C)”; (S. epidermidis) “S. epidermidis (S)”.
Regarding “PF-059 (TITLKAGIERALHEEVPGVIEVEQVF; Peptide with targeting and/or antimicrobial activity)”, for the setting “C. jejuni”, the “Organism, effect” value is recorded as “C. jejuni (C)”.
With “PF-067 (DLIVKVHICFVVKTASGYCYLNKREAQAAI; Peptide with targeting and/or antimicrobial activity)”, the “Organism, effect” value is reported as “B. subtilis (C)” (B. subtilis); “C. jeikeium (D)” (C. jeikeium); “C. jejuni (D)” (C. jejuni); “M. luteus (R)” (M. luteus); “MRSA (M)” (MRSA); “P. aeruginosa (A)” (P. aeruginosa). The “Organism, effect” value is, setting by setting: (S. epidermidis) “S. epidermidis (D)”; (S. pneumoniae) “S. pneumoniae (D)”.
Consider “PF-076 (LYQYELLSKEEYLKCTLIINQRRNEQK; Peptide with targeting and/or antimicrobial activity)”, for which the “Organism, effect” value runs as follows: (C. jeikeium) “C. jeikeium (A)”; (M. luteus) “M. luteus (A)”; (MRSA) “MRSA (R)”; (S. epidermidis) “S. epidermidis (S)”.
As to “PF-125 (YVVGALVILAVAGLIYSMLRKA; Peptide with targeting and/or antimicrobial activity)”, the “Organism, effect” value (M. luteus) is reported as “M. luteus (C)” and the “Organism, effect” value (S. epidermidis) was “S. epidermidis (D)”.
For “PF-139 (ALSKPAIQARTLCRRQDPP; Peptide with targeting and/or antimicrobial activity)”, the “Organism, effect” value is recorded as “C. jeikeium (R)” (C. jeikeium), “M. luteus (C)” (M. luteus) and “S. epidermidis (M)” (S. epidermidis).
Take “PF-140 (FHRRVIRASEWALTTRSFSTPLRSAAR; Peptide with targeting and/or antimicrobial activity)”: the “Organism, effect” value was “C. albicans (B)” (C. albicans); “C. jeikeium (D)” (C. jeikeium); “C. jejuni (D)” (C. jejuni); “M. luteus (R)” (M. luteus); “MRSA (M)” (MRSA); “P. aeruginosa (A)” (P. aeruginosa). Further, the “Organism, effect” value is given as “S. epidermidis (D)” (S. epidermidis) and “S. pneumoniae (D)” (S. pneumoniae).
As to “PF-145 (GIVLTGRAGLVSGACSMALGVGLG; Peptide with targeting and/or antimicrobial activity)”, the “Organism, effect” value is given as “B. subtilis (C)” (B. subtilis); “C. jeikeium (R)” (C. jeikeium); “C. jejuni (R)” (C. jejuni); “M. luteus (A)” (M. luteus); “MRSA (M)” (MRSA); “S. epidermidis (D)” (S. epidermidis). Moreover, the “Organism, effect” value (S. pneumoniae) is “S. pneumoniae (R)”.
As for “PF-157 (HTAVVWLAGVSGCVALSHCEPA; Peptide with targeting and/or antimicrobial activity)”, for the setting “S. epidermidis”, the “Organism, effect” value is recorded as “S. epidermidis (M)”.
As for “PF-178 (EVYSSPTNNVAITVQNN; Peptide with targeting and/or antimicrobial activity)”, the “Organism, effect” value (E. coli) was “E. coli (C)”; the “Organism, effect” value (MRSA) is given as “MRSA (M)”; the “Organism, effect” value (S. epidermidis) is “S. epidermidis (D)”; the “Organism, effect” value (S. pneumoniae) was “S. pneumoniae (D)”.
For the substance “PF-190 (HFILRKPLLFMIHSLKTGPLDRF; Peptide with targeting and/or antimicrobial activity)”, the “Organism, effect” value (C. jeikeium) is given as “C. jeikeium (R)” and the “Organism, effect” value (S. epidermidis) was “S. epidermidis (C)”.
“PF-196 (TTARYIRRQCHTSITPLSQG; Peptide with targeting and/or antimicrobial activity)”: the “Organism, effect” value (C. jeikeium) is “C. jeikeium (R)” and the “Organism, effect” value (S. epidermidis) is “S. epidermidis (C)”.
“PF-199 (FPAFSFGAIAGSVSVAR; Peptide with targeting and/or antimicrobial activity)”: the “Organism, effect” value was “C. jeikeium (R)” (C. jeikeium), “M. luteus (A)” (M. luteus) and “S. epidermidis (C)” (S. epidermidis).
